This passage reports Ki results from ChEMBL document CHEMBL1127782, “Non-peptidic inhibitors of human leukocyte elastase. 1. The design and synthesis of pyridone-containing inhibitors” (J Med Chem, 1994).

For this test, the target named is T1, Neutrophil elastase (Homo sapiens, UniProt P08246).
T1 sequence (P08246 whole entry): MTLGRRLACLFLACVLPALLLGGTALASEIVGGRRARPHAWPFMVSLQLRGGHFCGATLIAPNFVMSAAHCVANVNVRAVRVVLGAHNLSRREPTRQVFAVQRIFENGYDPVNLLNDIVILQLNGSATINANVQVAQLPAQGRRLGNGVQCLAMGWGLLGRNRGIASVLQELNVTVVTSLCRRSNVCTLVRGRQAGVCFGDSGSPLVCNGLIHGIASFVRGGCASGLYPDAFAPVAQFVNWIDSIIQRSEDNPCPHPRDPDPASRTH
Briefly: The compound was tested in vitro for ability to inhibit human leukocyte elastase activity.
`CC(C)C(NC(=O)Cn1cc(Cc2ccccc2)cc(NC(=O)C(N)=O)c1=O)C(=O)C(F)(F)F` (configuration not stated) yielded a Ki of 51 nM.
The compound `CC(C)C(NC(=O)Cn1cccc(NC(=O)C(=O)O)c1=O)C(=O)C(F)(F)F` (configuration not stated) displayed a Ki of 350 nM.
The compound `CC(C)C(NC(=O)Cn1cccc([N+](=O)[O-])c1=O)C(=O)C(F)(F)F` (configuration not stated) came in with a Ki of 15000 nM.
`CC(C)C(NC(=O)Cn1cc(Cc2ccc(C(F)(F)F)cc2)cc(NC(=O)OCc2ccccc2)c1=O)C(=O)C(F)(F)F` (configuration not stated) displayed a Ki of 47 nM.
The compound `CC(C)C(NC(=O)Cn1cc(Cc2ccc(O)cc2)cc(NC(=O)OCc2ccccc2)c1=O)C(=O)C(F)(F)F` (configuration not stated) showed a Ki of 34 nM.
As to `COC(=O)c1ccc(Cc2cc(NC(=O)OCc3ccccc3)c(=O)n(CC(=O)NC(C(=O)C(F)(F)F)C(C)C)c2)cc1` (configuration not stated), the affinity corresponds to a Ki of 88 nM.
The same measure for `CC(C)C(NC(=O)Cn1cc(Cc2ccc(F)cc2)cc(NC(=O)OCc2ccccc2)c1=O)C(=O)C(F)(F)F` (configuration not stated): 71 nM; for `COC(=O)C(=O)Nc1cccn(CC(=O)NC(C(=O)C(F)(F)F)C(C)C)c1=O` (configuration not stated): 500 nM.
In turn, `CC(C)C(NC(=O)Cn1cccc(NC(=O)C(N)=O)c1=O)C(=O)C(F)(F)F` (configuration not stated) displayed a Ki of 320 nM.
As for `CC(C)C(NC(=O)Cn1cc(Cc2cccc(OC(=O)C(C)(C)C)c2)cc(NC(=O)OCc2ccccc2)c1=O)C(=O)C(F)(F)F` (configuration not stated), affinity was put at a Ki of 12 nM.
On to `CC(C)C(NC(=O)Cn1cc(Cc2cccc(F)c2)cc(NC(=O)OCc2ccccc2)c1=O)C(=O)C(F)(F)F` (configuration not stated), for which the affinity, expressed as Ki, was 87 nM.
In the case of `COC(=O)C(=O)Nc1cc(Cc2ccccc2)cn(CC(=O)NC(C(=O)C(F)(F)F)C(C)C)c1=O` (configuration not stated) it was 70 nM; in that of `CC(C)C(NC(=O)Cn1cc(Cc2cccc(O)c2)cc(NC(=O)OCc2ccccc2)c1=O)C(=O)C(F)(F)F` (configuration not stated), 89 nM; in that of `CC(=O)Oc1cccc(Cc2cc(NC(=O)OCc3ccccc3)c(=O)n(CC(=O)NC(C(=O)C(F)(F)F)C(C)C)c2)c1` (configuration not stated), 42 nM.
In turn, `CC(C)C(NC(=O)Cn1cc(Cc2ccccc2)cc(NC(=O)OCc2ccccc2)c1=O)C(=O)C(F)(F)F` (configuration not stated) yielded an inhibition constant (Ki) of 40 nM.
In the case of `CCOC(=O)CC(=O)Nc1cccn(CC(=O)NC(C(=O)C(F)(F)F)C(C)C)c1=O` (configuration not stated), the inhibition constant Ki was 3400 nM.
In turn, `CC(C)C(NC(=O)Cn1cc(Cc2ccccc2)cc(NC(=O)C(=O)O)c1=O)C(=O)C(F)(F)F` (configuration not stated) registered a Ki of 48 nM.
For `CC(C)C(NC(=O)Cn1cccc(NC(=O)OCc2ccccc2)c1=O)C(=O)C(F)(F)F` (configuration not stated), the inhibition constant (Ki) was 280 nM.
Compound `CC(C)C(NC(=O)Cn1cccc(N)c1=O)C(=O)C(F)(F)F` (configuration not stated) registered an inhibition constant (Ki) of 2700 nM.
`CC(C)C(NC(=O)Cn1cc(Cc2ccc(OC(=O)C(C)(C)C)cc2)cc(NC(=O)OCc2ccccc2)c1=O)C(=O)C(F)(F)F` (configuration not stated) yielded a Ki of 32 nM.
The compound `CC(C)C(NC(=O)Cn1cccc(NC(=O)CC(=O)O)c1=O)C(=O)C(F)(F)F` (configuration not stated) came in with a Ki of 2600 nM.
`CC(C)C(NC(=O)Cn1cc(Cc2cccc(NC(=O)C(F)(F)F)c2)cc(NC(=O)OCc2ccccc2)c1=O)C(=O)C(F)(F)F` (configuration not stated) had an inhibition constant Ki of 36 nM.
